Data on two substances can be found in patent US8546072B2, “Substrate for assaying β-glucan and/or endotoxin and assay method” (Wako Pure Chemical Industries, Ltd., priority 2008, dated 2013).

The subject of this test is clotting enzyme. Briefly: Study on the reactivity of clotting enzyme by substrate (β-glucan-activated LAL fraction, HPLC of released fluorescent compound). It is filed as biochemical, Limulus polyphemus. The note with it: β-glucan-specific LAL fraction, 25 ng/mL standard β-glucan (lentinan), 37° C., FIG. 3. The method, then:
b) Aqueous solution of the peptide derivative of the present invention (hereinafter, sometimes abbreviated as substrate of the present invention): Boc-Thr-Gly-Arg-Gly-NH(CH2)4NH-Hilyte647 was dissolved in β-glucan-free water, and prepared to give 640 μM.
c) Aqueous substrate solution of known analogous substrate: Boc-Thr-Gly-Arg-NH-(CH2)4—NH-HiLyte647 obtained in Reference Example 1 was dissolved in β-glucan-free water, and prepared to give 640 μM.
d) Standard β-glucan solution: Intravenous lentinan preparation “Astellas” (Astellas Pharma Inc.) (1 mg) was dissolved in 0.1 M aqueous sodium hydroxide to give 50 μg/mL, and the solution was then diluted appropriately with β-glucan-free water, and used as the standard β-glucan solution. e) β-glucan specific LAL fraction solution: A fraction in which β-glucan-dependent clotting enzyme activity was detected was collected from the blood cell of American horseshoe crab (Limulus polyphemus) according to LAL extraction method described in pages 268 to 269 of “T. Kitagawa et al., Journal of Chromatography, 567 (1991) 267-273” and fractionation method by ion exchange chromatography, LAL fraction (a fraction corresponding to the fraction Nos. 7 to 20 in the above described literature) in 20 mM Tris-HCl buffer (pH 8.0) was obtained. […]

Primed or numbered codes have the meaning given here. The star is where a group is joined. NH(CH2)4NH′ = not defined here; Boc = CC(C)(C)OC(=O)*

For “Boc-Thr-Gly-Arg-Gly-NH(CH2)4NH-Hilyte647 (Boc-TGRG-{NH(CH2)4NH′-HiLyte Fluor 647}) [tetrapeptide substrate with butanediamine spacer and HiLyte Fluor 647 dye]”, the “time in which the substrate was cleaved by the clotting enzyme” value (substrate 160 μM in reagent for reaction 1) is recorded as “about 20 minutes”. As to “Boc-Thr-Gly-Arg-NH(CH2)4NH-Hilyte647 [Reference Example 1]”, the “decomposition rate (area of released fluorescent compound versus total area)” value (after 2 hours of reaction) is no more than 20%.
